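96-well plates; 48 h exposure; 5 concentrations. Endpoints by linear interpolation between flanking doses. Not reached: highest tested concentration assigned. Here, GI50 denotes the concentration required for 50% inhibition of growth. TGI: total growth inhibition.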
What was measured:
Assay in all cases: NCI anticancer screen, dose series, 48 h
T-47D breast = system: T-47D breast
SW-620 colon = system: SW-620 colon
HCC-2998 colon = system: HCC-2998 colon
LOX IMVI melanoma = system: LOX IMVI melanoma
IGROV1 ovarian = system: IGROV1 ovarian
UACC-257 melanoma = system: UACC-257 melanoma
ACHN renal = system: ACHN renal
HCT-116 colon = system: HCT-116 colon
OVCAR-3 ovarian = system: OVCAR-3 ovarian
MCF7 breast = system: MCF7 breast
NCI-H23 lung = system: NCI-H23 lung
HS 578T breast = system: HS 578T breast
A549 NSCLC = system: A549 NSCLC
PC-3 prostate = system: PC-3 prostate
SK-MEL-5 melanoma = system: SK-MEL-5 melanoma
DU-145 prostate = system: DU-145 prostate
HOP-92 NSCLC = system: HOP-92 NSCLC

SMILES	TGI (T-47D breast)	TGI (SW-620 colon)	TGI (HCC-2998 colon)	TGI (LOX IMVI melanoma)	TGI (IGROV1 ovarian)	TGI (UACC-257 melanoma)	TGI (ACHN renal)	TGI (HCT-116 colon)	TGI (OVCAR-3 ovarian)	TGI (MCF7 breast)	TGI (NCI-H23 lung)	TGI (HS 578T breast)	TGI (A549 NSCLC)	TGI (PC-3 prostate)	TGI (SK-MEL-5 melanoma)	TGI (DU-145 prostate)	GI50 (HCT-116 colon)	GI50 (OVCAR-3 ovarian)	TGI (HOP-92 NSCLC)
Cc1ccc(S(=O)(=O)N2CCCC2C(=O)O[C@H]2CC[C@H]3CC=C[C@H]32)cc1 (some centres undefined)	> 100 µM	> 100 µM	> 100 µM	> 100 µM	> 100 µM	67.4 µM	> 31.6 µM	> 31.6 µM	> 100 µM	78.8 µM	> 100 µM	> 100 µM	> 31.6 µM	> 100 µM	43.6 µM	–	–	–	–
COc1cccc(C2C3=C(COC3=O)Oc3cc4c(cc32)OCO4)c1 (centres undefined)	–	> 100 µM	1.88 µM	> 22.1 µM	> 64.9 µM	> 100 µM	> 53.1 µM	> 31.6 µM	0.43 µM	> 100 µM	24.9 µM	> 100 µM	> 100 µM	> 100 µM	> 43.1 µM	6.77 µM	–	–	–
O=C(O)CCCOc1cc(-c2ccccc2F)nc2cc3c(cc12)OCO3	> 100 µM	> 100 µM	> 100 µM	> 100 µM	15.8 µM	–	–	> 100 µM	6.74 µM	> 100 µM	> 100 µM	–	> 100 µM	> 100 µM	> 100 µM	> 100 µM	3.99 µM	2.35 µM	95.6 µM
CCOC(=O)c1cnc(-n2[nH]c3c(c2=O)CCCC3)[nH]c1=O	> 100 µM	> 100 µM	–	–	> 100 µM	> 100 µM	> 100 µM	> 100 µM	–	–	> 100 µM	> 100 µM	> 100 µM	> 100 µM	> 100 µM	> 100 µM	–	–	57.6 µM
N#CCCN(CCN(C(=O)Nc1ccccc1)c1ccccc1)C(=O)Nc1ccccc1	> 100 µM	> 100 µM	> 100 µM	> 100 µM	> 100 µM	> 100 µM	> 100 µM	> 100 µM	> 100 µM	> 100 µM	> 100 µM	–	> 100 µM	> 100 µM	> 100 µM	> 100 µM	–	–	> 100 µM
C=CCN(C)CN(C)c1nc(N(C)C)nc(N(C)C)n1	–	> 100 µM	> 100 µM	> 100 µM	> 100 µM	> 100 µM	> 100 µM	> 100 µM	> 100 µM	–	> 100 µM	–	> 100 µM	–	> 100 µM	–	–	–	> 100 µM
O=c1cc(-c2ccc(Cl)cc2)oc2cc(OCCCOc3ccc4c(=O)cc(-c5ccc(Cl)cc5)oc4c3)ccc12	–	> 100 µM	> 100 µM	> 100 µM	> 100 µM	> 100 µM	> 100 µM	> 100 µM	> 100 µM	–	> 100 µM	–	> 100 µM	–	> 100 µM	–	–	–	> 100 µM
O=C1CC(=O)N(CCc2ccccc2)S(=O)(=O)N1CCc1ccccc1	–	> 100 µM	> 100 µM	3.72 µM	42 µM	–	> 100 µM	74.5 µM	36.8 µM	–	69.1 µM	–	64.8 µM	–	44.2 µM	–	–	–	32.3 µM
COC(=O)[C@@]12OC[C@]34C([C@@H](O)C1O)[C@@]1(C)CC(=O)C(OC(=O)/C=C(/c5ccccc5)C(F)(F)F)=C(C)C1C[C@H]3OC(=O)[C@H](O)[C@H]42 (some centres undefined)	–	–	22.3 µM	–	21.2 µM	> 50 µM	> 50 µM	> 50 µM	–	–	19.7 µM	–	> 50 µM	–	31.4 µM	–	–	–	43.7 µM
CN(C)C(=O)Oc1ccc(-c2cn3cc(NC(=O)c4ccccc4)ccc3n2)cc1	> 100 µM	> 100 µM	> 100 µM	> 100 µM	> 100 µM	> 100 µM	> 100 µM	> 100 µM	> 100 µM	> 100 µM	> 100 µM	–	> 100 µM	> 100 µM	74.1 µM	> 100 µM	–	–	> 100 µM
[N-]=[N+]=NC(CBr)c1cn([C@H]2C[C@H](O)[C@@H](CO)O2)c(=O)[nH]c1=O (some centres undefined)	–	> 100 µM	> 100 µM	> 100 µM	> 100 µM	–	> 100 µM	> 100 µM	> 100 µM	–	> 100 µM	–	> 100 µM	–	> 100 µM	–	–	–	> 100 µM
O=C(O)c1ccccc1/C=N/NC1=NCCCCN1	> 100 µM	> 100 µM	> 100 µM	> 100 µM	> 100 µM	> 100 µM	> 100 µM	> 100 µM	> 100 µM	> 100 µM	> 100 µM	> 100 µM	> 100 µM	> 100 µM	> 100 µM	–	–	–	> 100 µM
COc1cc2c(cc1OC)C(=O)C(C1=C(SC(=N)N)C(=O)c3cc(OC)c(OC)cc31)C2 (centres undefined)	–	> 100 µM	> 100 µM	> 100 µM	> 100 µM	> 100 µM	> 100 µM	> 100 µM	> 100 µM	–	> 100 µM	–	> 100 µM	–	> 100 µM	–	–	–	–
O=C(c1cccc(C(=O)c2ccc3c4c(cccc24)C(=O)N(c2ccccc2)C3=O)c1)c1ccc2c3c(cccc13)C(=O)N(c1ccccc1)C2=O	–	> 100 µM	> 100 µM	> 100 µM	> 100 µM	> 100 µM	> 100 µM	> 100 µM	> 100 µM	> 100 µM	> 100 µM	> 100 µM	> 100 µM	> 100 µM	> 100 µM	> 100 µM	–	–	> 100 µM
Cc1cc(OCC(=O)N/N=C/C(Br)=C/c2ccccc2)nc(SCC(=O)N/N=C/C(Br)=C/c2ccccc2)n1	–	> 100 µM	82.9 µM	> 100 µM	> 100 µM	> 100 µM	> 100 µM	> 100 µM	> 100 µM	> 100 µM	> 100 µM	> 100 µM	–	> 100 µM	> 100 µM	> 100 µM	–	–	86.4 µM

— PubChem BioAssay (NCI)
